{"source": "patent US20190010547A1", "about": "(Medizinische Universität Innsbruck, priority 2015, published 2019)", "key": {"serum miR-122 [1]": {"system": "serum miR-122", "conditions": "ASCOT participants (n=155), atorvastatin 10 mg/day vs placebo, baseline vs 1 year"}, "serum miR-122 [2]": {"system": "serum miR-122", "assay": "Statin treatment of mice: serum miR-122", "conditions": "C57BI/6 mice, 20 mg/kg atorvastatin intraperitoneally once a day for five days"}, "[3]": {"conditions": "ASCOT participants, atorvastatin 10 mg/day vs placebo, baseline vs 1 year"}, "miR-33": {"system": "miR-33", "assay": "AntagomiR treatment of mice: hepatic miR-33 expression", "type": "in vivo", "conditions": "mouse liver, antagomiR-122 vs control antagomiRs, 65 mg/kg i.p. x3 days, day 7", "procedure": "(§1) Liver and serum samples were harvested for analysis.\n(§2) Total RNA was isolated from liver and hepatocyte samples using TRIzol reagent (Invitrogen) according to the manufacturer's protocol. For mRNA quantification, cDNA was synthesized using iScript RT Supermix (Bio-Rad), following the manufacturer's protocol. qRT-PCR analysis was performed in triplicate using iQ SYBR green Supermix (BioRad) on an iCycler Real-Time Detection System (Eppendorf). The mRNA level was normalized to GAPDH or 18S as a house keeping gene (see primer sequence in Table 2). For miRNA quantification, total RNA was reverse transcribed using the miScript II RT Kit (Qiagen). […] For mouse tissues, total liver RNA from WT mice fed a HFD were isolated using the Bullet Blender Homogenizer (Next Advance) in TRIzol. 1 μg of total RNA was reverse transcribed and gene/miRNA expression assessed as above."}, "miR-122": {"system": "miR-122", "assay": "AntagomiR treatment of mice: liver miR-122 by Northern blotting and quantitative PCR", "type": "in vivo", "conditions": "mouse liver", "procedure": "as §1\nMiRNA expression was assessed by Northern blot analysis as previously described (Suárez, Circ Res 2007, 100: 1164-73). Briefly, total RNA (5 μg) was separated on a 15% acrylamide TBE 8M urea gel and blotted onto a Hybond N+ nylon filter (Amersham Biosciences). […] ATP and […] polynucleotide kinase (New England Biolabs) to generate high-specific activity probes. Hybridization was carried out according to the ExpressHyb (Clontech) protocol. Following overnight membrane hybridization with specific radiolabeled probes, membranes were washed once for 30 min at 42° C. in 4×SSC/0:5% SDS and subjected to autoradiography. Blots were re-probed for 5S rRNA to control for equal loading: 5′-[…]-3′\nTotal RNA was isolated from liver and hepatocyte samples using TRIzol reagent (Invitrogen) according to the manufacturer's protocol. For mRNA quantification, cDNA was synthesized using iScript RT Supermix (Bio-Rad), following the manufacturer's protocol. qRT-PCR analysis was performed in triplicate using iQ SYBR green Supermix (BioRad) on an iCycler Real-Time Detection System (Eppendorf). […] For miRNA quantification, total RNA was reverse transcribed using the miScript II RT Kit (Qiagen). […] 1 μg of total RNA was reverse transcribed and gene/miRNA expression assessed as above."}, "[4]": {"assay": "AntagomiR treatment of mice: serum cholesterol", "type": "in vivo", "conditions": "antagomiR-122 vs control antagomiRs, 65 mg/kg i.p. x3 days, day 7", "procedure": "as §1\nBlood samples were collected by retro-orbital venous plexus puncture after a 12 h overnight fast for lipid analysis. Plasma was separated by centrifugation and stored at 4° C. Total and HDL cholesterol in each sample was enzymatically measured using the T-Cholesterol and HDL-C Assay Kits (Wako Diagnostics)."}, "[5]": {"system": "genes implicated in cholesterol and lipid metabolism (ACC1, CTP1, FAS, SCD1, MTTP, SREBP1)", "assay": "AntagomiR treatment of mice: liver expression of genes implicated in cholesterol and lipid metabolism (qRT-PCR)", "type": "in vivo", "conditions": "mouse liver mRNA, antagomiR-122 65 mg/kg i.p. x3 days, day 7", "procedure": "as §1, §2"}, "hepatitis C virus": {"system": "hepatitis C virus", "conditions": "36 patients with chronic hepatitis C genotype 1 infection, Phase 2a (Janssen, N Engl J Med 2013); cited from earlier work"}}, "note": "Entries after “also recorded” stand apart in the source; their conditions may differ.", "data": [{"compound": "CC(C)c1c(C(=O)Nc2ccccc2)c(-c2ccccc2)c(-c2ccc(F)cc2)n1CC[C@@H](O)C[C@@H](O)CC(=O)O", "note": "[atorvastatin]", "values": [{"measurement": "serum miR-122 levels", "setting": "serum miR-122 [1]", "value": "reduced circulating miR-122 levels; also recorded: concordant reduction"}, {"measurement": "serum miR-122", "setting": "serum miR-122 [2]", "value": "reduction of miR-122; also recorded: reduced serum miR-122"}, {"measurement": "total cholesterol", "setting": "[3]", "value": "concordant reduction"}]}, {"compound": "C*A*AACACCAUUGUCACACU*C*C*A*Chol*-T [antagomiR-122]", "values": [{"measurement": "hepatic expression of miR-33", "setting": "miR-33", "value": "attenuated; also recorded: reduction of miR-33"}, {"measurement": "liver miR-122 expression", "setting": "miR-122; Northern blotting / qPCR, 65 mg/kg i.p. on three consecutive days, day 7, n=5 per group, 65 mg/kg", "value": "almost complete inhibition of miR-122 expression; also recorded: reduction of liver miR-122"}, {"measurement": "relative amount of miR-122 in antagomiR-122 group", "setting": "miR-122; quantitative PCR, 65 mg/kg intraperitoneally on three consecutive days, sacrificed at day 7, vs control antagomiRs, mean (standard deviation)", "value": 0.13, "unit": "%+/−0.06%"}, {"measurement": "serum cholesterol concentration", "setting": "[4]", "value": "lower cholesterol levels; also recorded: reduction in serum cholesterol concentration"}, {"measurement": "expression of genes implicated in lipid metabolism (de novo lipogenesis and lipoprotein assembly)", "setting": "[5]", "value": "down-regulation of enzymes implicated in lipid metabolism"}]}, {"compound": "miravirsen", "values": [{"measurement": "hepatitis C virus RNA levels", "setting": "hepatitis C virus", "value": "reduced hepatitis C virus RNA levels in a dose-dependent manner"}]}]}
